From patent publication US8501759B2, “Use of fibrates” (Fournier Laboratories Ireland Limited, priority 2009, dated 2013)

Legend:
[1] = test system: patients with sleep apnea syndrome; assay: Overnight sleep study: apnea/hypopnea recording (CID 102) in the 1-month placebo-controlled study; format: in vivo, human
Text: This study comprised 2 phases: • a run-in period of 1 to 5 weeks, on usual diet, • a treatment period of at least 4 weeks (40 days maximum).
(§1) Primary variables: number of obstructive apneas, of central apneas, of mixed apneas, total number of apneas, index of apnea per sleep hour, total number of hypopneas, index of hypopnea per sleep hour, index of apnea/hypopnea per sleep hour, total number of desaturations per sleep hour (with a variation of at least 3-4%), and percentage of time spent with SpO2<90%.
(§2) Variables assessed as complementary analyses: cumulated duration of apnea, mean duration of apnea, duration of the longest apnea, number of non cortical micro-awakening indicators related to respiratory events/hour, number of non cortical micro-awakening indicators related to respiratory events, oxygen saturation in blood measured by pulse oximetry (SpO2) in wake state, mean SpO2 on sleep recording, minimum value of SpO2, percentage of time spent with SpO2<80%, percentage of time spent with SpO2<85%, number of tachycardia, mean duration of tachycardia, number of bradycardia, mean duration of bradycardia, mean pulse rate, standard deviation pulse rate, minimum pulse rate, maximum pulse rate, decrease in daytime sleepiness assessed by the ESS, vigilance tests (reflexive visually guided saccades, antisaccades and sustained attention test).
Throughout the night, respiration was monitored by a sound pressure transducer placed on the suprasternal notch facing the trachea or thoracic strain gauges (model CID 102) (Van Surell C, Lemaigre D, Leroy M, Foucher A, Hagenmuller M P, Raffestin B. Evaluation of an ambulatory device, CID 102, in the diagnosis of obstructive sleep apnea syndrome. Eur Respir J. 1995; 8(5):795-800).
Apnea is defined as an absence of inspiratory flow for at least 10 seconds.
Hypopnea is defined as a 50% to 80% reduction in airflow combined with 3-4% oxygen desaturations.
Sleep apneas are classified as obstructive or central.
Central apneas are defined as total absence of inspiratory flow and chest/abdominal movement during the period of absence of inspiration flow.
Obstructive sleep apneas are defined by a decrease in airflow of more than 80% in the presence of paradoxical movements of the ribcage and abdomen. Similar to AHI, the obstructive and central apneas were based on definitions that require events to be associated with 3-4% desaturations.

[2] = test system: patients with sleep apnea syndrome; assay: Sustained attention test; conditions: end of treatment (V3)
[3] = test system: patients with sleep apnea syndrome; assay: Epworth Sleepiness Scale (ESS); format: in vivo, human; conditions: fenofibrate group, at baseline and at end of treatment; global score 0 to 24
Text: as §2
This scale is the most widely index used to measure sleep apnea subjectively. It is a self-administered questionnaire that asks patients their likelihood of falling asleep in 8 situations ranked from 0 (no chance of dozing), 1 (slight chance of dozing), 2 (moderate chance of dozing) to 3 (high chance of dozing). The numbers are then added together to obtain a global score between 0 and 24. A value of 10 or below is considered normal.

[4] = test system: patients with sleep apnea syndrome; assay: Safety (adverse events, safety laboratory, vital signs)
[5] = test system: patients with sleep apnea syndrome; assay: Overnight sleep study: pulse oximetry (SpO2, desaturations); format: in vivo, human
Text: as §1, §2
Desaturation episodes were the markers of respiratory impairment. All-night recordings of arterial oxygen saturation were obtained using a cardio-respiratory pulse oximeter attached to the finger (SpO2).
Severity of obstructive sleep apnea was measured by the number of falls in SpO2 of more than 3-4% per hour of sleep. The equipment automatically selected the desaturation threshold (3 or 4%) according to the baseline SpO2 value. To further define the severity of OSA, the lowest SpO2 point and the percentage of time spent with SpO2<90% was determined.

[6] = 160 mg tablet administered with food; cited from earlier work
[7] = test system: patients with sleep apnea syndrome; assay: Laboratory efficacy variables (lipids, glucose, fibrinogen, insulin); format: in vivo, human
Experimental: Secondary variables: % change from baseline (V2) in fasting and post-prandial TG, total cholesterol (TC), high-density lipoprotein cholesterol (HDL-C), fasting plasma glucose (FPG), fibrinogen and insulin.
TC, TG, HDL-C, glucose, fibrinogen and insulin were measured at inclusion and during the 2 hospital admissions before a lipid rich breakfast. Insulin was also measured before the lipid rich breakfast, each morning following the sleep study.
Post-prandial TG were measured 4 hours after a lipid rich breakfast.

[8] = ANCOVA on Log-transformed V3 values, relative difference
[9] = end of treatment (V3), ANCOVA on non-transformed data
[10] = fenofibrate 145 mg group, end of treatment (V3)
[11] = fenofibrate group, treatment period
[12] = end of treatment (V3), ANCOVA on Log-transformed data, relative difference
[13] = end of treatment (V3), ANCOVA on non-transformed data, absolute difference

CC(C)OC(=O)C(C)(C)Oc1ccc(C(=O)c2ccc(Cl)cc2)cc1 [Fenofibrate, fenofibrate]
Number of central apneas, Fenofibrate-Placebo at end of treatment, Estimate [1, 8]: −55% | Number of hypopneas, Fenofibrate-Placebo at end of treatment, Estimate [1, 8]: −46% | Number of mixed apneas, Fenofibrate-Placebo at end of treatment, Estimate [1, 8]: −25% | Number of obstructive apneas, Fenofibrate-Placebo at end of treatment, Estimate [1, 8]: −44% | Number of apneas, Fenofibrate-Placebo at end of treatment, Estimate ([1]; ANCOVA on Log-transformed V3 values, relative difference, minus = improvement): −35% | Cumulated duration of apnea, Fenofibrate-Placebo Estimate ([1]; end of treatment (V3), ANCOVA on Log-transformed data): −31% | Number of non cortical micro-awakening, Fenofibrate-Placebo Estimate [1, 9]: −75.7 | Cumulated duration of apnea, End (V3) (median) [1, 10]: 4.5 min | Duration of the longest apnea, End (V3) (median) [1, 10]: 23.5 s | Mean duration of apnea, End (V3) (median) [1, 10]: 13.5 s | Number of central apneas, End (V3) (median) [1, 10]: 1.0 | Number of hypopneas, End (V3) (median) [1, 10]: 63.0 | Number of mixed apneas, End (V3) (median) [1, 10]: 1.0 | Number of non cortical micro-awakening, End (V3) (median) [1, 10]: 128.0 | Number of obstructive apneas, End (V3) (median) [1, 10]: 15.0 | Number of apneas, End (V3) (median) ([1]; fenofibrate 145 mg group, end of treatment (V3), total number during sleep recording): 20.5 | Non cortical micro-awakening per hour, End (V3) (median) ([1]; fenofibrate 145 mg group, end of treatment (V3), indicators related to respiratory events): 18.0 | Maximum latency all sarters, Fenofibrate-Placebo Estimate ([2]; ANCOVA on Log-transformed data, relative difference): 7% | Mean latency all sarter, Fenofibrate-Placebo Estimate ([2]; ANCOVA on non-transformed data, absolute difference): 3.6 ms | Maximum latency all sarters, End (V3) (median) ([2]; fenofibrate 145 mg group): 750.0 ms | Minimum latency all sarters, End (V3) (median) ([2]; fenofibrate 145 mg group): 295.0 ms | Percent false responses all sarters, End (V3) (median) ([2]; fenofibrate 145 mg group): 1.1 | Percent omissions all sarters, End (V3) (median) ([2]; fenofibrate 145 mg group): 0.0 | Standard Deviation latency all sarters, End (V3) (median) ([2]; fenofibrate 145 mg group): 98.0 ms | Mean latency all sarter, End (V3) (median) ([2]; fenofibrate 145 mg group, mean of the 5 tests): 409.7 ms | median of the ESS [3]: 8.5 | tolerability ([4]; 4-week treatment, 145 mg once daily): well tolerated | changes in mean values of pulse rate, DBP or SBP between baseline and end of treatment ([4]; either treatment group): no meaningful changes | other safety biological variables (ALT, AST, CK), fenofibrate vs placebo ([4]; end of treatment): did not differ between the 2 groups | Median % change at end of treatment from baseline in RBC ([4]; fenofibrate group): −2.7% | Median % change at end of treatment from baseline in WBC ([4]; fenofibrate group): −11.6% | Median % change at end of treatment from baseline in hematocrit ([4]; fenofibrate group): −3.2% | Median % change at end of treatment from baseline in hemoglobin ([4]; fenofibrate group): −3.8% | AEs reported (kinds) [4, 11]: bloating (n=1), rash (n=1), allergic rhinitis (n=1), metabolic syndrome (SAE, n=1), type 2 diabetes (n=1), and cystitis (n=1) | number of AEs reported [4, 11]: 6 | number of patients with AEs [4, 11]: 3 | number of SAE reported during the treatment period ([4]; fenofibrate group, hospitalized for assessment of metabolic syndrome, not related to study treatment): 1 | Median % change at end of treatment from baseline in platelets ([4]; fenofibrate group, p=0.007 vs placebo): +4.7% | Median % change at end of treatment from baseline in creatinine ([4]; fenofibrate group, p=0.015 vs placebo): +5.9% | mean values of body weight and BMI at end of treatment compared to baseline ([4]; in vivo): remained roughly unchanged | AEs considered as related to study treatment ([4]; treatment period): None | Number of desaturations, Fenofibrate-Placebo at end of treatment, Estimate [5, 8]: −23% | Mean of SPO2 on recording, Fenofibrate-Placebo Estimate [5, 9]: 1.1% | Minimum value of SpO2, Fenofibrate-Placebo Estimate [5, 9]: 0.4% | Mean of SPO2 on recording, End (V3) (median) [5, 10]: 94.0% | Minimum value of SpO2, End (V3) (median) [5, 10]: 82.0% | Number of desaturations, End (V3) (median) [5, 10]: 130.0 | Percentage of time with SpO2 < 90%, End (V3) (median) [5, 10]: 3.5% | Percentage time spent with SpO2 < 80%, End (V3) (median) [5, 10]: 0.0% | Percentage time spent with SpO2 < 85%, End (V3) (median) [5, 10]: 0.0% | SpO2 in wake state, End (V3) (median) [5, 10]: 95.0% | increase of exposure to fenofibric acid with food compared to fasting conditions [6]: 35% | effect on fasting plasma glucose (FPG) ([7]; end of treatment): no effect | HDL-Cholesterol, Fenofibrate-Placebo Estimate [7, 12]: 2% | Post-Prandial Triglycerides, Fenofibrate-Placebo Estimate [7, 12]: −26% | Fasting Plasma Glucose, Fenofibrate-Placebo Estimate [7, 13]: 0.2 mmol/L | Fibrinogen, Fenofibrate-Placebo Estimate [7, 13]: -1.7 µmol/L | Insulin, Fenofibrate-Placebo Estimate [7, 13]: 12.1 pmol/L | Total Cholesterol, Fenofibrate-Placebo Estimate [7, 13]: -0.8 mmol/L | Fasting Plasma Glucose, End (V3) (median) [7, 10]: 5.45 mmol/L | Fasting Triglycerides, End (V3) (median) [7, 10]: 2.00 mmol/L | Fibrinogen, End (V3) (median) [7, 10]: 8.82 µmol/L | Insulin, End (V3) (median) [7, 10]: 94.4 pmol/L | Total Cholesterol, End (V3) (median) [7, 10]: 4.58 mmol/L | Post-Prandial Triglycerides, End (V3) (median) ([7]; fenofibrate 145 mg group, end of treatment (V3), 4 hours after a lipid rich breakfast): 3.27 mmol/L
